In US20240391862A1, “(1,4,5-TRISUBSTITUTED-1H-PYRAZOL-3-YL)OXY-2-ALKOXY ALKYL ACIDS AND THEIR DERIVATIVES, THEIR SALTS AND THEIR USE AS HERBICIDAL AGENTS” (Bayer AKtiengesellschaft, priority 2021, published 2024):

Columns and labels:
MATIN = assay: Post-emergence herbicidal effect, greenhouse pot test; type: in vivo, Tripleurospermum inodorum
In short: (§1)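 Weeds sown in sandy loam, greenhouse-grown 2–3 weeks, then sprayed at one-leaf stage with WP or EC formulations in water plus 0.5% additive at 600 l/ha. Rates 20 to 320 g/ha. Visual rating after about 3 weeks versus untreated controls (100% = plants dead, 0% = like control).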

ZEAMX = assay: Post-emergence herbicidal effect and crop plant compatibility, greenhouse pot test; type: in vivo, Zea mays; conditions: one-leaf stage, rated visually after about 3 weeks vs untreated controls
In short: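 Sandy loam pots, greenhouse. One-leaf stage (2–3 wk after sowing) foliar spray; WP/EC in water + 0.5% additive, 600 l/ha; 20–320 g/ha. Visual score ~3 wk, 0–100% vs untreated.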

KCHSC = assay: Post-emergence herbicidal effect, greenhouse pot test; type: in vivo; conditions: 320 g/ha
In short: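 Greenhouse plants in sandy loam, sprayed post-emergence at the one-leaf stage (2–3 weeks after sowing) with WP or EC formulations in water plus 0.5% additive at 600 l/ha. Rates 20 to 320 g/ha. Activity rated visually after about 3 weeks against untreated controls (0% like control, 100% dead).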

AVEFA = assay: as above; type: in vivo, Avena fatua; conditions: 320 g/ha, visual rating about 3 weeks after treatment
In short: as §1

VERPE = assay: as above; type: in vivo, Veronica persica
In short: as §1

ALOMY = assay: as above; type: in vivo, Alopecurus myosuroides; conditions: 320 g/ha, visual rating about 3 weeks after treatment
In short: as §1

ABUTH = assay: as above; type: in vivo, Abutilon theophrasti; conditions: visual rating about 3 weeks after treatment
In short: as §1

TRZAS = assay: Post-emergence herbicidal effect and crop plant compatibility, greenhouse pot test; type: in vivo, Triticum aestivum; conditions: 20 g/ha, one-leaf stage, rated visually after about 3 weeks vs untreated controls
Description: • ALOMY: Alopecurus myosuroides SETVI: Setaria viridis • AVEFA: Avena fatua POLCO: Fallopia convolvulus • AMARE: Amaranthus retroflexus ECHCG: Echinochloa crus-galli • LOLRJ: Lolium rigidum STEME: Stellaria media • VERPE: Veronica persica MATIN: Tripleurospermum inodorum • DIGSA: Digitaria sanguinalis ABUTH: Abutylon threophrasti • TRZAS: Triticum aestivum VIOTR: Viola tricolor • BRSNW: Brassica napus ZEAMX: Zea mays • PHBPU: Ipomoea purpurea GLXMA: Glycine max • ORYSA: Oryza sativa HORMU: Hordeum murinum
Seeds of monocotyledonous and dicotyledonous weeds and crop plants are placed in sandy loam in plastic or organic planting pots, covered with soil and cultivated in a greenhouse under controlled growth conditions. 2 to 3 weeks after sowing, the trial plants are treated at the one-leaf stage. The compounds of the invention, formulated in the form of wettable powders (WP) or as emulsion concentrates (EC), are then sprayed onto the green parts of the plants as aqueous suspension or emulsion with addition of 0.5% additive at a water application rate of 600 l/ha (converted). After the test plants have been kept in the greenhouse under optimum growth conditions for about 3 weeks, the activity of the preparations is rated visually in comparison to untreated controls. For example, 100% activity=the plants have died, 0% activity=like control plants.
Tables 20a to 38c below show the effects/crop compatibilities of selected compounds of the general formula (I) on various harmful plants at an application rate corresponding to 20 to 320 g/ha, which were obtained by the trial procedure specified above.

ECHCG = assay: Post-emergence herbicidal effect, greenhouse pot test; type: in vivo, Echinochloa crus-galli
In short: as §1

AMARE = assay: as above; type: in vivo, Amaranthus retroflexus; conditions: 320 g/ha, visual rating about 3 weeks after treatment
In short: as §1

DIGSA = assay: as above; type: in vivo, Digitaria sanguinalis; conditions: visual rating about 3 weeks after treatment
In short: as §1

SETVI = assay: as above; type: in vivo, Setaria viridis
In short: as §1

PHBPU = assay: as above; type: in vivo, Ipomoea purpurea
In short: as §1

VIOTR = assay: as above; type: in vivo, Viola tricolor
In short: as §1

POLCO = assay: as above; type: in vivo, Fallopia convolvulus
In short: as §1

SMILES: CCOC(Oc1nn(-c2ccccc2F)c(-c2ccc(F)nc2)c1Cl)C(=O)OCC(C)C(=O)OC (racemic) [Example I-54]
- Post-emergence effect against MATIN in % (MATIN; 20 g/ha): 80%
- Post-emergence effect against MATIN in % (MATIN; 80 g/ha): 90%
- Post-emergence effect against MATIN in % (MATIN; 320 g/ha): 90%
- Post-emergence effect at 20 g/ha against ZEAMX in % (ZEAMX; 20 g/ha): 0%
- Post-emergence effect against KCHSC in % (KCHSC): 80%
- Post-emergence effect against AVEFA (AVEFA): 90%
- Post-emergence effect against VERPE in % (VERPE; 20 g/ha): 80%
- Post-emergence effect against VERPE in % (VERPE; 80 g/ha): 80%
- Post-emergence effect against VERPE in % (VERPE; 320 g/ha): 90%
- Post-emergence effect against ALOMY (ALOMY): 100%
- Post-emergence effect against ABUTH (ABUTH; 320 g/ha): 80%
- Post-emergence effect at 20 g/ha against TRZAS in % (TRZAS): 0%
- Post-emergence effect against ECHCG (ECHCG; 20 g/ha, visual rating about 3 weeks after treatment): 80%
- Post-emergence effect against ECHCG in % (ECHCG; 80 g/ha): 90%
- Post-emergence effect against ECHCG in % (ECHCG; 320 g/ha): 90%
- Post-emergence effect against AMARE (AMARE): 80%
- Post-emergence effect against DIGSA (DIGSA; 320 g/ha): 90%
- Post-emergence effect against SETVI in % (SETVI; 80 g/ha): 80%
- Post-emergence effect against SETVI in % (SETVI; 320 g/ha): 90%
- Post-emergence effect against PHBPU in % (PHBPU; 80 g/ha): 90%
- Post-emergence effect against PHBPU in % (PHBPU; 320 g/ha): 90%
- Post-emergence effect against VIOTR in % (VIOTR; 80 g/ha): 80%
- Post-emergence effect against VIOTR in % (VIOTR; 320 g/ha): 80%
- Post-emergence effect against POLCO in % (POLCO; 80 g/ha): 80%
- Post-emergence effect against POLCO in % (POLCO; 320 g/ha): 80%

SMILES: CCOC(Oc1nn(-c2ccccc2F)c(-c2ccc(F)nc2)c1Br)C(=O)OCCC(=O)OC (single isomer, unassigned) [Example I-59, Methyl 3-{[(2RS)-2-{[4-bromo-1-(2-fluorophenyl)-5-(6-fluoropyridin-3-yl)-1H-pyrazol-3-yl]oxy}-2-ethoxyethanoyl]oxy}propanoate]
- pest or weed control at 320 g/ha (MATIN; Tripleurospermum inodorum, 504 h, 320 g/ha, read-out: Post-emergence effect against MATIN in %): 80%
- plant injury at 20 g/ha (ZEAMX; Zea mays, 504 h, 20 g/ha, read-out: Post-emergence effect at 20 g/ha against ZEAMX in %): 20%
- pest or weed control at 320 g/ha (KCHSC; 504 h, read-out: Post-emergence effect against KCHSC in %): 80%
- pest or weed control at 320 g/ha (AVEFA; Avena fatua, 504 h, read-out: Post-emergence effect against AVEFA): 80%
- pest or weed control at 80 g/ha (VERPE; Veronica persica, 504 h, 80 g/ha, read-out: Post-emergence effect against VERPE in %): 80%
- pest or weed control at 320 g/ha (VERPE; Veronica persica, 504 h, 320 g/ha, read-out: Post-emergence effect against VERPE in %): 80%
- pest or weed control at 320 g/ha (ALOMY; Alopecurus myosuroides, 504 h, read-out: Post-emergence effect against ALOMY): 90%
- pest or weed control at 80 g/ha (ABUTH; Abutilon theophrasti, 504 h, 80 g/ha, read-out: Post-emergence effect against ABUTH): 90%
- pest or weed control at 320 g/ha (ABUTH; Abutilon theophrasti, 504 h, 320 g/ha, read-out: Post-emergence effect against ABUTH): 90%
- percent crop injury (phytotoxicity) to wheat, post-emergence at 20 g/ha (TRZAS; Triticum aestivum, 504 h, read-out: Post-emergence effect at 20 g/ha against TRZAS in %): 0%
- pest or weed control at 80 g/ha (ECHCG; Echinochloa crus-galli, 504 h, 80 g/ha, read-out: Post-emergence effect against ECHCG in %): 90%
- pest or weed control at 320 g/ha (ECHCG; Echinochloa crus-galli, 504 h, 320 g/ha, read-out: Post-emergence effect against ECHCG in %): 90%
- pest or weed control at 80 g/ha (DIGSA; Digitaria sanguinalis, 504 h, 80 g/ha, read-out: Post-emergence effect against DIGSA): 80%
- pest or weed control at 320 g/ha (DIGSA; Digitaria sanguinalis, 504 h, 320 g/ha, read-out: Post-emergence effect against DIGSA): 90%
- pest or weed control at 80 g/ha (SETVI; Setaria viridis, 504 h, 80 g/ha, read-out: Post-emergence effect against SETVI in %): 80%
- pest or weed control at 320 g/ha (SETVI; Setaria viridis, 504 h, 320 g/ha, read-out: Post-emergence effect against SETVI in %): 90%
- pest or weed control at 80 g/ha (PHBPU; Ipomoea purpurea, 504 h, 80 g/ha, read-out: Post-emergence effect against PHBPU in %): 90%
- pest or weed control at 320 g/ha (PHBPU; Ipomoea purpurea, 504 h, 320 g/ha, read-out: Post-emergence effect against PHBPU in %): 90%
- pest or weed control at 80 g/ha (VIOTR; Viola tricolor, 504 h, 80 g/ha, read-out: Post-emergence effect against VIOTR in %): 90%
- pest or weed control at 320 g/ha (VIOTR; Viola tricolor, 504 h, 320 g/ha, read-out: Post-emergence effect against VIOTR in %): 90%

SMILES: COC(=O)CCOC(=O)C(OC)Oc1nn(-c2ncccc2F)c(-c2ccc(F)nc2)c1C1CC1 (single isomer, unassigned) [Example I-81]
- Post-emergence effect at 20 g/ha against ZEAMX in % (ZEAMX; 20 g/ha): 0%
- Post-emergence effect at 80 g/ha against ZEAMX in % (ZEAMX; 80 g/ha): 0%
- Post-emergence effect against KCHSC in % (KCHSC): 90%
- Post-emergence effect against AVEFA (AVEFA): 90%
- Post-emergence effect against ALOMY (ALOMY): 90%
- Post-emergence effect against ABUTH (ABUTH; 320 g/ha): 90%
- Post-emergence effect at 20 g/ha against TRZAS in % (TRZAS): 0%
- Post-emergence effect against ECHCG in % (ECHCG; 320 g/ha): 90%
- Post-emergence effect against AMARE (AMARE): 80%
- Post-emergence effect against DIGSA (DIGSA; 320 g/ha): 80%
- Post-emergence effect against SETVI in % (SETVI; 320 g/ha): 90%
- Post-emergence effect against PHBPU in % (PHBPU; 320 g/ha): 80%
- Post-emergence effect against POLCO in % (POLCO; 320 g/ha): 90%
